Laboratory results taken from ChEMBL document CHEMBL5303573, “Mapping human microbiome drug metabolism by gut bacteria and their genes” (Nature, 2019).

Assays:
[1] = The drug is tested on Bacteroides sp. WH2 strain: WH2 for biotransformation. The drug concentrations were measured before and after a 12-h incubation by liquid-chromatography-coupled mass spectrometry (LC–MS); settings: bacteroides sp. wh2, 12 h, 2 µM
[2] = The drug is tested on Ruminococcus gnavus strain: ATCC29149 for biotransformation. The drug concentrations were measured before and after a 12-h incubation by liquid-chromatography-coupled mass spectrometry (LC–MS); settings: mediterraneibacter gnavus, 2 µM
[3] = The drug is tested on Eubacterium rectale strain: ATCC33656 for biotransformation. The drug concentrations were measured before and after a 12-h incubation by liquid-chromatography-coupled mass spectrometry (LC–MS); settings: agathobacter rectalis, 2 µM
[4] = The drug is tested on Eggerthella lenta strain: ATCC25559 for biotransformation. The drug concentrations were measured before and after a 12-h incubation by liquid-chromatography-coupled mass spectrometry (LC–MS); settings: 2 µM
[5] = The drug is tested on Bacteroides ovatus strain: ATCC8483 for biotransformation. The drug concentrations were measured before and after a 12-h incubation by liquid-chromatography-coupled mass spectrometry (LC–MS); settings: 2 µM
[6] = The drug is tested on Providencia stuartii strain: ATCC25827 for biotransformation. The drug concentrations were measured before and after a 12-h incubation by liquid-chromatography-coupled mass spectrometry (LC–MS); settings: 2 µM
[7] = parabacteroides distasonis, 12 h, 2 µM
Description: The drug is tested on Parabacteroides distasonis strain: ATCC8503 for biotransformation. The drug concentrations were measured before and after a 12-h incubation by liquid-chromatography-coupled mass spectrometry (LC–MS)

[8] = The drug is tested on Bacteroides dorei strain: DSM17855 for biotransformation. The drug concentrations were measured before and after a 12-h incubation by liquid-chromatography-coupled mass spectrometry (LC–MS); settings: phocaeicola dorei, 2 µM
[9] = The drug is tested on Eubacterium ventriosum strain: ATCC27560 for biotransformation. The drug concentrations were measured before and after a 12-h incubation by liquid-chromatography-coupled mass spectrometry (LC–MS); assay type: ADME; set-up: dose 2 uM, timepoint 0 vs 12 hours; settings: 2 µM
[10] = The drug is tested on Escherichia coli strain: BW25113 for biotransformation. The drug concentrations were measured before and after a 12-h incubation by liquid-chromatography-coupled mass spectrometry (LC–MS); settings: 2 µM
[11] = The drug is tested on Bacteroides finegoldii strain: DSM17565 for biotransformation. The drug concentrations were measured before and after a 12-h incubation by liquid-chromatography-coupled mass spectrometry (LC–MS); settings: 2 µM
[12] = enterocloster bolteae, 12 h, 2 µM
Description: The drug is tested on Clostridium bolteae strain: ATCCBAA-613 for biotransformation. The drug concentrations were measured before and after a 12-h incubation by liquid-chromatography-coupled mass spectrometry (LC–MS)

[13] = bifidobacterium adolescentis, 12 h, 2 µM
Description: The drug is tested on Bifidobacterium adolescentis strain: ATCC 15703 for biotransformation. The drug concentrations were measured before and after a 12-h incubation by liquid-chromatography-coupled mass spectrometry (LC–MS)

[14] = The drug is tested on Dorea formicigenerans strain: ATCC27755 for biotransformation. The drug concentrations were measured before and after a 12-h incubation by liquid-chromatography-coupled mass spectrometry (LC–MS); settings: 2 µM
[15] = The drug is tested on Edwardsiella tarda strain: ATCC23685 for biotransformation. The drug concentrations were measured before and after a 12-h incubation by liquid-chromatography-coupled mass spectrometry (LC–MS); settings: 2 µM
[16] = bacteroides eggerthii, 12 h, 2 µM
Description: The drug is tested on Bacteroides eggerthii strain: DSM20697 for biotransformation. The drug concentrations were measured before and after a 12-h incubation by liquid-chromatography-coupled mass spectrometry (LC–MS)

[17] = The drug is tested on Bacteroides xylanisolvens strain: DSM18836 for biotransformation. The drug concentrations were measured before and after a 12-h incubation by liquid-chromatography-coupled mass spectrometry (LC–MS); settings: 2 µM
[18] = The drug is tested on Bacteroides fragilis strain: HMW610 for biotransformation. The drug concentrations were measured before and after a 12-h incubation by liquid-chromatography-coupled mass spectrometry (LC–MS); settings: 2 µM
[19] = parabacteroides johnsonii, 12 h, 2 µM
Description: The drug is tested on Parabacteroides johnsonii strain: DSM18315 for biotransformation. The drug concentrations were measured before and after a 12-h incubation by liquid-chromatography-coupled mass spectrometry (LC–MS)

[20] = bacteroides thetaiotaomicron, 12 h, 2 µM
Description: The drug is tested on Bacteroides thetaiotaomicron strain: VPI-5482 for biotransformation. The drug concentrations were measured before and after a 12-h incubation by liquid-chromatography-coupled mass spectrometry (LC–MS)

Row | SMILES | Bacterial Biotransformation [1] | Bacterial Biotransformation [2] | Bacterial Biotransformation [3] | Bacterial Biotransformation [4] | Bacterial Biotransformation [5] | Bacterial Biotransformation [6] | Bacterial Biotransformation [7] | Bacterial Biotransformation [8] | Bacterial Biotransformation [9] | Bacterial Biotransformation [10] | Bacterial Biotransformation [11] | Bacterial Biotransformation [12] | Bacterial Biotransformation [13] | Bacterial Biotransformation [14] | Bacterial Biotransformation [15] | Bacterial Biotransformation [16] | Bacterial Biotransformation [17] | Bacterial Biotransformation [18] | Bacterial Biotransformation [19] | Bacterial Biotransformation [20]
1 | CCCCC(=O)N(Cc1ccc(-c2ccccc2-c2nnn[nH]2)cc1)[C@H](C(=O)O)C(C)C | Compound NOT metabolized | Compound NOT metabolized | Compound NOT metabolized | Compound NOT metabolized | Compound NOT metabolized | Compound NOT metabolized | Compound metabolized | Compound NOT metabolized | Compound NOT metabolized | Compound NOT metabolized | Compound metabolized | Compound NOT metabolized | Compound NOT metabolized | Compound NOT metabolized | Compound NOT metabolized | Compound NOT metabolized | Compound metabolized | Compound metabolized | Compound NOT metabolized | –
2 | C[C@@H]1C[C@H]2[C@@H]3CCC4=CC(=O)C=C[C@]4(C)[C@@]3(F)[C@@H](O)C[C@]2(C)[C@@]1(O)C(=O)CO [DEXAMETHASONE] | Compound NOT metabolized | Compound NOT metabolized | Compound NOT metabolized | Compound NOT metabolized | – | – | Compound NOT metabolized | Compound metabolized | – | Compound NOT metabolized | Compound NOT metabolized | – | Compound NOT metabolized | Compound NOT metabolized | Compound NOT metabolized | Compound NOT metabolized | Compound metabolized | Compound metabolized | Compound metabolized | Compound metabolized
3 | CN(C)C(=O)C(CCN1CCC(O)(c2ccc(Cl)cc2)CC1)(c1ccccc1)c1ccccc1 [LOPERAMIDE] | Compound NOT metabolized | Compound NOT metabolized | Compound NOT metabolized | Compound NOT metabolized | – | Compound NOT metabolized | Compound metabolized | Compound metabolized | Compound NOT metabolized | Compound metabolized | – | Compound NOT metabolized | Compound NOT metabolized | Compound NOT metabolized | Compound NOT metabolized | Compound metabolized | Compound metabolized | Compound metabolized | – | Compound NOT metabolized
4 | CC12CC3CC(C)(C1)CC(N)(C3)C2 [MEMANTINE] | Compound NOT metabolized | Compound NOT metabolized | – | Compound NOT metabolized | Compound NOT metabolized | Compound NOT metabolized | Compound NOT metabolized | Compound NOT metabolized | – | Compound NOT metabolized | Compound NOT metabolized | Compound NOT metabolized | Compound NOT metabolized | Compound NOT metabolized | Compound NOT metabolized | Compound NOT metabolized | – | Compound NOT metabolized | Compound NOT metabolized | Compound NOT metabolized
5 | Cc1cc(C)cc(OCC2CNC(=O)O2)c1 (stereo unspecified) [METAXALONE] | Compound NOT metabolized | Compound NOT metabolized | Compound NOT metabolized | Compound NOT metabolized | Compound metabolized | Compound NOT metabolized | Compound metabolized | Compound metabolized | Compound NOT metabolized | – | – | Compound NOT metabolized | Compound NOT metabolized | Compound NOT metabolized | – | – | Compound metabolized | Compound metabolized | – | –
6 | COC(=O)C(c1ccccc1)C1CCCCN1 (stereo unspecified) [METHYLPHENIDATE] | Compound NOT metabolized | Compound NOT metabolized | – | Compound metabolized | Compound NOT metabolized | Compound NOT metabolized | – | Compound NOT metabolized | Compound NOT metabolized | Compound metabolized | Compound NOT metabolized | Compound NOT metabolized | – | – | Compound NOT metabolized | Compound NOT metabolized | Compound NOT metabolized | Compound NOT metabolized | Compound metabolized | Compound NOT metabolized
7 | CC(=O)O[C@H]1C(=O)[C@@]2(C)[C@H]([C@H](OC(=O)c3ccccc3)[C@]3(O)C[C@H](OC(=O)[C@H](O)[C@@H](NC(=O)c4ccccc4)c4ccccc4)C(C)=C1C3(C)C)[C@]1(OC(C)=O)CO[C@@H]1C[C@@H]2O [PACLITAXEL] | Compound NOT metabolized | Compound NOT metabolized | Compound NOT metabolized | Compound NOT metabolized | – | Compound NOT metabolized | Compound NOT metabolized | – | – | Compound NOT metabolized | Compound NOT metabolized | Compound NOT metabolized | Compound NOT metabolized | Compound NOT metabolized | Compound NOT metabolized | Compound NOT metabolized | Compound metabolized | – | Compound NOT metabolized | Compound NOT metabolized
8 | CCC(=O)NCC[C@@H]1CCc2ccc3c(c21)CCO3 [RAMELTEON] | Compound NOT metabolized | Compound NOT metabolized | – | Compound NOT metabolized | – | – | Compound metabolized | Compound metabolized | Compound NOT metabolized | Compound NOT metabolized | Compound NOT metabolized | Compound NOT metabolized | Compound NOT metabolized | Compound NOT metabolized | Compound NOT metabolized | Compound metabolized | Compound metabolized | Compound metabolized | Compound NOT metabolized | Compound metabolized
9 | O=C(O[C@H]1C[C@H]2CC[C@@H](C1)[N+]21CCCC1)C(O)(c1ccccc1)c1ccccc1.[Cl-] [TROSPIUM CHLORIDE] | Compound NOT metabolized | Compound NOT metabolized | Compound NOT metabolized | Compound NOT metabolized | Compound NOT metabolized | Compound NOT metabolized | Compound NOT metabolized | Compound NOT metabolized | Compound NOT metabolized | Compound NOT metabolized | Compound NOT metabolized | Compound NOT metabolized | Compound NOT metabolized | Compound NOT metabolized | Compound NOT metabolized | Compound NOT metabolized | Compound NOT metabolized | – | Compound NOT metabolized | Compound NOT metabolized
